Data on one molecule can be found in paper PMC4109680, “Identification and Preclinical Pharmacology of the γ-Secretase Modulator BMS-869780” (International Journal of Alzheimer's Disease, 2014).

Like-named read-outs stand apart in the source and are kept apart here.

The subject of data set [1] is CYP3A4 mRNA. Nature of the data set: CYP3A4 mRNA expression in primary human hepatocytes. It counts as cell-based. To be noted: two donors, relative to rifampicin 10 μM. As for the experimental part: Figure 10 BMS-869780 caused PXR activation in vitro and lipidosis in rat liver. (a) PXR activation in the presence of BMS-869780 was evaluated in HepG2 cell cultures using a luciferase transcriptional reporter construct (●), or by assay of CYP3A4 mRNA levels in primary human hepatocyte (PHH) cultures from two individual donors (▲ and ▼). Activation in both assays is expressed as % relative to activation in the presence of rifampicin, 10 μM, in parallel cultures. (b) Liver section from vehicle-dosed rats. (c) Liver section from rats given 4 daily doses of BMS-869780 at 100 mg/kg.

Data set [2] in a line: Triple transgenic (3xTg) mouse time course PK/PD, oral dose, indirect response model. It counts as in vivo. To be noted: female, 3xTg (triple transgenic), plasma. As for the experimental part: (§1) Figure 8 Analysis of the PK/PD relationship for BMS-869780 in rats and mice. Rats were dosed orally with BMS-869780 at 10 mg/kg, and triple transgenic mice were orally dosed at 30 mg/kg and 100 mg/kg. Additional groups of rats and mice were dosed with vehicle alone. Brain and plasma were harvested at 3, 5, 8, 16, and 24 hours after dosing for determination of brain Aβ1-42 and plasma BMS-869780 concentration. Group sizes were 5 rats or 4 mice. Whiskers represent standard error. […] The data were fit to a one-compartment PK model and the predicted plasma BMS-869780 concentrations are shown for mouse (solid lines) and rat (broken line). […] The data were fitted using the indirect pharmacodynamic response model and predicted values are shown (solid lines). (c) Brain Aβ1-42 levels were determined for the rats dosed with BMS-869780 at 10 mg/kg (▼) or vehicle alone (●). The data were fitted using the indirect pharmacodynamic response model and predicted values are shown (dashed line). (d) Brain Aβ1-40 levels determined in the same rats as illustrated in (c).
(§2) All experimental procedures with animals followed National Institutes of Health guidelines and were authorized by and in compliance with policies of the Bristol-Myers Squibb Animal Use and Care Committee. Mice and rats were housed with a 6:00 AM to 6:00 PM light/dark cycle and allowed free access to food and water. For 3xTg mice, BMS-869780 was dosed in three-month-old females by oral gavage at 6 mL/kg in vehicle consisting of 84% polyethylene glycol average molecular weight of 400 (PEG-400), 15% EtOH, and 1% Tween-80 (w/w/w). The compound was dissolved in EtOH and then diluted with PEG-400 and Tween, after which the vial was sealed, vortexed, and sonicated at 56°C for 1 hour. Animals were euthanized by asphyxiation in CO2. Blood was collected by cardiac puncture and placed into ethylene-diaminetetraacetic acid microtainer tubes for the preparation of plasma. The cerebellum was collected for the determination of compound concentration, and the remaining brain was separated into left and right halves before freezing in liquid nitrogen. For the rat time course study, 8- to 12-week-old female Sprague-Dawley rats were obtained from Charles River Laboratories (Wilmington, MA), BMS-869780 was dosed orally at 4 mL/kg, and brain and plasma samples were collected as described for the 3xTg mice. For the four day repeat dose rat study, BMS-869780 was given by oral gavage in vehicle consisting of PEG-400, PEG-200, D-α-tocopheryl polyethylene glycol succinate, Solutol HS 15, in the ratio 80 : 10 : 5 : 5 (w/w/w/w). Methods for the pharmacokinetics studies in rat, dog, and monkey are described below.
(§3) The data generated in the mouse and rat time course experiments were analyzed sequentially by nonlinear regression (WinNonlin Pharsight Corporation, Mountain View, CA). The pharmacokinetic data were best described by a 1-compartment linear model with first-order absorption and elimination. Subsequently, the pharmacodynamic parameters were estimated from the BMS-869780 plasma concentrations and the observed reductions of brain Aβ1-42 or Aβ1-40 by fitting to the equation for inhibition of synthesis. The goodness-of-fit was determined by visual inspection, Akaike Information Criterion, Schwartz Criterion, examination of the residuals and the coefficient of variation of the parameter estimates.

Data set [3] has as its system brain Aβ1-42. Described as above. It counts as in vivo. Conditions: for IC50: po. The procedure:
as §1, §2, §3

A short description of data set [4]: Plasma protein bound fraction, mouse. It counts as in vitro ADME.
The mark [5] stands for this setting: Mouse 30 mg/kg PO solution (observed 0–24 hours).
The mark [6] stands for this setting: Mouse 100 mg/kg PO solution (observed 0–24 hours).

One may read the AUC(0-t) as exposure summed from dosing to a finite time, without extrapolation to infinity. A lower AUC(0-t) goes with low exposure. For `COc1cc(Nc2nc3n(n2)CCCC[C@H]3c2ccc(F)cc2)ccc1-n1cnc(Cl)c1` [BMS-869780], the “concentrations at which CYP3A4 mRNA transcription was activated” value in data set [1] was no less than 300 nM. In addition, the k el in data set [2] (oral, mouse, 1-compartment PK model) was 7.78e-05 s⁻¹. The AUC(0-t) in data set [2] (setting [5]) amounted to 45.9 µM·h; in data set [2] (setting [6]), 102 µM·h. Also, the “Brain Aβ ABEC 24 hr Aβ1-42” value in data set [3] (setting [5]) is reported as 30.9%; in data set [3] (setting [6]), 55.1%. In data set [3] (mouse), the V/F is recorded as 1.94 L/kg. Besides, the “Ka1 (30 mg/kg)” value in data set [3] (mouse, 30 mg/kg oral) was found to be 0.11 h⁻¹. The “Ka2 (100 mg/kg)” value in data set [3] (mouse, 100 mg/kg oral) was found to be 0.046 h⁻¹. For the same molecule, the “K in” value in data set [3] (mouse, calculated) was 72 %/h. Besides, the “K OUT” value in data set [3] (mouse, rate constant for degradation of Aβ) was found to be 0.72 h⁻¹. The IC50 in data set [3] (mouse, PD model, read-out: IC50 (plasma concentration required for 50% inhibition of Aβ production)) is 3.98 µM; in data set [3] (mouse, read-out: in vivo plasma IC50 for brain Aβ1-42) it was 4 µM. The molecule also displayed a protein bound fraction in data set [4] of 99.6%.
